# According to US7056707B2, “Bioactive compound and its isolation and method of treatment for lipoxygenase inhibition and as free radical scavenging agent” (Council of Scientific and Industrial Research, priority 2002, dated 2006):
# “Also recorded” adds a separate entry of the source.
# Assays:
# [1] = Solubility in solvents; format: physicochemical
# From the text: The compound is amorphous yellow powder.
# [2] = target: T1, purified soybean lipoxygenase (LOX-1) (Glycine max, UniProt P08170); assay: Soybean lipoxygenase (LOX-1) inhibition, absorbance at 234 nm; format: biochemical; conditions: as stated in embodiment b50; read-out: IC50 against purified soybean lipoxygenase
# T1 construct: Soybean lipoxygenase (LOX-1) is purified according to the method of Axelrod et al; from tissue; host or cells: soybean seeds (Hardee variety), dehulled and defatted
# T1 sequence (P08170 1-839): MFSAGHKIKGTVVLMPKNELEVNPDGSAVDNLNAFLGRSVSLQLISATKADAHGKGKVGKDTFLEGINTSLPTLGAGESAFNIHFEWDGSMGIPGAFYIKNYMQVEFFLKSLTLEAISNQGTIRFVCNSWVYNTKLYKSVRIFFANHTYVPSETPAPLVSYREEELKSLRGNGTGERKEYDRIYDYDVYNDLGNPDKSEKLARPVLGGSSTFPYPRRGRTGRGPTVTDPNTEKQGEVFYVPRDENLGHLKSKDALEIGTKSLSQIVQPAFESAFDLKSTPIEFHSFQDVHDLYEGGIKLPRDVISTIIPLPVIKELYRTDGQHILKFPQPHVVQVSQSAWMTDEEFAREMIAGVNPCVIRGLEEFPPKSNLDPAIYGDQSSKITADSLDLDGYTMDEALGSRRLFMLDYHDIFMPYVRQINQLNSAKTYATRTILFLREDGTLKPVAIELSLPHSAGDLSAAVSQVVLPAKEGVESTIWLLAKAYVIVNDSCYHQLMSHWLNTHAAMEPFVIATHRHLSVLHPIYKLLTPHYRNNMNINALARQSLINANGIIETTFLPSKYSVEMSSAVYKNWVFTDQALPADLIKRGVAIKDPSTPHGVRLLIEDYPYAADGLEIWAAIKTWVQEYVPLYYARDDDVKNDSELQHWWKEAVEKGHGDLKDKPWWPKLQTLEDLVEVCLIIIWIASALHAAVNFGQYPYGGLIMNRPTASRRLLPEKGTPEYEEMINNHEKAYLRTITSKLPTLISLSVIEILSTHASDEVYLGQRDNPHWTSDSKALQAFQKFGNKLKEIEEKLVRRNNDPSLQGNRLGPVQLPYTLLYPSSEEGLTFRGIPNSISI
# Procedure: Soybean lipoxygenase (LOX-1) is purified according to the method of Axelrod et al., lipoxygenase from soybeans. Methods in Enzymology 1981, 71, 441–451, using the Hardee variety of soybean, after dehulling and defatting by hexane. The substrate, sodium linoleate (10 mM) is prepared as follows:
# To 70 mg of linoleic acid an equal weight of Tween-20 and 4 ml of oxygen free water is added and homogenized by drawing back and forth in a pasture pipette, avoiding air bubbles. Sufficient quantity of 0.5 N NaOH is added to this to yield a clear solution. The resulting sodium linoleate is divided into 1–2 mL portions in small screw cap vials, flushed with N2 before closing, and keep frozen until needed. Enzyme reaction is carried out at 25° C. in a quartz cuvette with a 1 cm light path. The assay mixture contained (2.975−x) ml of borate buffer (0.2 M, pH 9.0), 0.025 ml of sodium linoleate substrate, and x mL of enzyme. After each addition the mixture is stirred with a few strokes of a plastic paddler. The reference cuvette contained no enzyme. Absorption at 234 nm is recorded, and the reaction rate is determined from the slope of the straight-line portion of the curve.
# [3] = target: T2, crude rat lens aldose reductase (Rattus norvegicus, UniProt P07943); assay: Rat lens aldose reductase inhibition, decrease in absorbance at 340 nm; format: biochemical; conditions: as stated in embodiment b50; read-out: IC50 against crude rat lens aldose reductase
# T2 construct: from tissue; host or cells: rat eye lens homogenate, 10,000 r.p.m. supernatant
# Procedure: Lens are collected from rat eyes and homogenised with sodium, potassium phosphate buffer (0.135 M, pH 7.0) containing 0.5 mM of phenyl methyl sulphonyl fluoride and 10 mM of p-mercaptoethanol. The homogenate is centrifuged at 10,000 r.p.m for 30 minutes at 4° C. The supernatant is taken as enzyme source. Enzyme reaction is carried out at 25° C. in a quartz cuvette with a 1-cm light path. The assay mixture contained 100 μL of nicotinamide adenine dinucleotide phosphate tetra sodium salt (from a stock solution of 9.6 mM), 100 μL of DL-glyceraldehyde (from a stock solution of 250 mM), 10 μL of inhibitor dissolved in dimethyl sulphoxide, sodium-potassium-phosphate buffer (0.135 M, pH 7.0) to make up the total volume to […] and the reaction is initiated by the addition of 200 μL of enzyme solution. The enzyme reaction is monitored by the decrease in absorbency at 340 nm and compared with enzyme reaction without inhibitor.
smiles,measurement,setting,value
"C/C=C/c1c(C)c(OC)c(C(=O)O)c(C(N)=O)c1O [compound 1, 2-amido, 3-hydroxy, 4-propene, 5-methyl, 6-methoxy benzoic acid]",solubility in chloroform and hexane,"[1]; chloroform, hexane",sparingly soluble; also recorded: slightly soluble
same,solubility in organic solvents,"[1]; ethanol, methanol, ethyl acetate, dimethyl sulphoxide",soluble
same,solubility in aqueous alkaline solution,"[1]; sodium bicarbonate, sodium carbonate, sodium hydroxide solution (b24 also potassium bicarbonate, potassium carbonate, lithium hydroxide, potassium hydroxide)",soluble
same,solubility in water,[1]; water,insoluble
same,IC50,[2],79 µM
same,IC50,[3],69 µM
